# Laboratory results taken from ChEMBL document CHEMBL4837249, “Discovery of Potent Antiallergic Agents Based on an o-Aminopyridinyl Alkynyl Scaffold” (J Med Chem, 2021).
# Columns and labels:
# [1] = molecular target: T1, Tyrosine-protein kinase Yes (Homo sapiens, UniProt P07947); test: Inhibition of human full length recombinant Yes at 50 nM by radiometric scintillation counting analysis relative to control
# [2] = molecular target: T2, Tyrosine-protein kinase ABL1 (Homo sapiens, UniProt P00519); test: Inhibition of human recombinant ABL1 using ATP/Ulight-TK peptide at 5 nM incubated for 15 mins relative to control
# [3] = molecular target: T2, Tyrosine-protein kinase ABL1; test: Inhibition of human recombinant ABL1 using ATP/Ulight-TK peptide at 50 nM incubated for 15 mins relative to control
# [4] = molecular target: Protein-tyrosine kinase 6 (Homo sapiens) (UniProt Q13882); test: Inhibition of human recombinant BRK (174 to 734) at 50 nM by radiometric scintillation counting analysis relative to control
# Chain of Protein-tyrosine kinase 6 (Homo sapiens) (Q13882 whole entry, looked up): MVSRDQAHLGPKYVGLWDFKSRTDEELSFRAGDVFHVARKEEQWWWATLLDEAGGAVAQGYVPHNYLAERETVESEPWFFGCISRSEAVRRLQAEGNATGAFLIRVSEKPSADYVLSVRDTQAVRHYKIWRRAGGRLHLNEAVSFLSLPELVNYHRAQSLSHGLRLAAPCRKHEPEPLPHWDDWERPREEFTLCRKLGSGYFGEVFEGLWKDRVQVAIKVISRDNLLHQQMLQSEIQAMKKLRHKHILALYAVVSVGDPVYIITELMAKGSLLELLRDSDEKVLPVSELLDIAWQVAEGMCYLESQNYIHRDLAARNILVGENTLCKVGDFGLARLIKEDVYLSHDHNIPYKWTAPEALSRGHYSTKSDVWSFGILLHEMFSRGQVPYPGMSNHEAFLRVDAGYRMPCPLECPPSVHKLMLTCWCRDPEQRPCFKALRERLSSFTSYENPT
# [5] = molecular target: T3, Tyrosine-protein kinase Srms (Homo sapiens, UniProt Q9H3Y6); test: Inhibition of human SRMS at 50 nM by radiometric scintillation counting analysis relative to control
# [6] = molecular target: T1, Tyrosine-protein kinase Yes; test: Inhibition of human full length recombinant Yes at 500 nM by radiometric scintillation counting analysis relative to control
# [7] = molecular target: Platelet-derived growth factor receptor alpha (Homo sapiens) (UniProt P16234); test: Inhibition of human recombinant PDGFRalpha (550 to end) at 5 nM by radiometric scintillation counting analysis relative to control
# Chain of Platelet-derived growth factor receptor alpha (Homo sapiens) (P16234 whole entry): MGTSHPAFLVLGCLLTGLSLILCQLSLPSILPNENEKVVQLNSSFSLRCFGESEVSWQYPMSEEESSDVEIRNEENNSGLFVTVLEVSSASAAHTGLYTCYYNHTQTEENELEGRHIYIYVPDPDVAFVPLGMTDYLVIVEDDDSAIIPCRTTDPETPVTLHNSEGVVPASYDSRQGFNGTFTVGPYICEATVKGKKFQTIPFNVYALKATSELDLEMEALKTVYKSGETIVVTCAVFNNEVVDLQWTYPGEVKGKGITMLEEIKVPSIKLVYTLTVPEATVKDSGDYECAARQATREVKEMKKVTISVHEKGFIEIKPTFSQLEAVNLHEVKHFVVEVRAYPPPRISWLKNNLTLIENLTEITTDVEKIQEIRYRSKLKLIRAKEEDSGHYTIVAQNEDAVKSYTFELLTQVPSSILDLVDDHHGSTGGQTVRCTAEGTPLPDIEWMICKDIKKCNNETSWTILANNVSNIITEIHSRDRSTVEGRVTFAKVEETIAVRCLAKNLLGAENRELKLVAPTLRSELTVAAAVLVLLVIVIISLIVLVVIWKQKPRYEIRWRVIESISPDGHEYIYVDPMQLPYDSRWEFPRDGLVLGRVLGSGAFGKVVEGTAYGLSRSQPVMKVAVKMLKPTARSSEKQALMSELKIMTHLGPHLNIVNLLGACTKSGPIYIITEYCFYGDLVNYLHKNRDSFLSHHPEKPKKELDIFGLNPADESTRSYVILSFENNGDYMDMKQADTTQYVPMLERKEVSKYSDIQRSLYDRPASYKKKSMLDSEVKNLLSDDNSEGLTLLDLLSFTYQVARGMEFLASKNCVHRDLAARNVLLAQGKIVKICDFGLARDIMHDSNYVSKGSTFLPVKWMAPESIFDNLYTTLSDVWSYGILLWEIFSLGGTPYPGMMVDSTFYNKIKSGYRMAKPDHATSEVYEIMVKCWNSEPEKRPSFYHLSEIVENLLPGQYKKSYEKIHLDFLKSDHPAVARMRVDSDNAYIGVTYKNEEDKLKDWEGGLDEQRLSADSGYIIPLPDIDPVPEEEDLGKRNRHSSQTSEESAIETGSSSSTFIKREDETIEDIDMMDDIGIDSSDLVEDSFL
# [8] = molecular target: T4, Tyrosine-protein kinase TXK (Homo sapiens) (UniProt P42681); test: Inhibition of human recombinant […] (256 to end) at 5 nM by radiometric scintillation counting analysis relative to control
# T4 sequence (whole entry): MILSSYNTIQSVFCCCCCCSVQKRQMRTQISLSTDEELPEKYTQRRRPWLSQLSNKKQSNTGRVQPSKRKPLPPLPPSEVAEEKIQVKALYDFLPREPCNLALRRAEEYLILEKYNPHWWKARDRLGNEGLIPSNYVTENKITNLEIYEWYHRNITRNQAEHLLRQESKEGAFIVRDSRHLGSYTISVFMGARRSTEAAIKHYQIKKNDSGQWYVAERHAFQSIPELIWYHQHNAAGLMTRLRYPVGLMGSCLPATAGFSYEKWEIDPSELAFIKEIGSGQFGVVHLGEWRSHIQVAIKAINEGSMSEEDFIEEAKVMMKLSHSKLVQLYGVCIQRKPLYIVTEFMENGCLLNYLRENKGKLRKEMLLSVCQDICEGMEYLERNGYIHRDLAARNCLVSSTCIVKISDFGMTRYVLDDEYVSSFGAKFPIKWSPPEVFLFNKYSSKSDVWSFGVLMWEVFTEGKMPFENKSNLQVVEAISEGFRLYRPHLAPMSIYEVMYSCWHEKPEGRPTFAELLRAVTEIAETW
# [9] = molecular target: Platelet-derived growth factor receptor beta (Homo sapiens) (UniProt P09619); test: Inhibition of human recombinant PDGFRbeta (557 to end) at 5 nM by radiometric scintillation counting analysis relative to control
# [10] = molecular target: Tyrosine-protein kinase Blk (Homo sapiens, UniProt P51451); test: Inhibition of human full length recombinant BLK at 5 nM by radiometric scintillation counting analysis relative to control
# Chain of Tyrosine-protein kinase Blk (P51451 2-505 limits assumed): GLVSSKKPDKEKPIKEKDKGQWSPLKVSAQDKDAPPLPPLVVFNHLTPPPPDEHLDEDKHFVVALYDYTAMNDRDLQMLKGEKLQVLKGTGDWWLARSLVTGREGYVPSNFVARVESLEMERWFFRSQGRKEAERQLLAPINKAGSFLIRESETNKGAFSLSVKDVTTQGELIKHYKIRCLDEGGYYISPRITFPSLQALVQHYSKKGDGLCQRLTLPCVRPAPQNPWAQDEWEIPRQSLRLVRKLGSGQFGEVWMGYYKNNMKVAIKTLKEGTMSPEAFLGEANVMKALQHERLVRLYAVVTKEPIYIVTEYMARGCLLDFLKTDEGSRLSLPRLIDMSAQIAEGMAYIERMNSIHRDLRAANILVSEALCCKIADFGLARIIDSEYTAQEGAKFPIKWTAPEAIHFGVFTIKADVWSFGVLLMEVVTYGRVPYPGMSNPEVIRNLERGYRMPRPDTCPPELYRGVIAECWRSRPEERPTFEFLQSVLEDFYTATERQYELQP
# [11] = molecular target: Tyrosine-protein kinase Lck (Homo sapiens, UniProt P06239); test: Inhibition of human full length recombinant LCK at 5 nM by radiometric scintillation counting analysis relative to control
# Chain of Tyrosine-protein kinase Lck (P06239 2-509 limits assumed): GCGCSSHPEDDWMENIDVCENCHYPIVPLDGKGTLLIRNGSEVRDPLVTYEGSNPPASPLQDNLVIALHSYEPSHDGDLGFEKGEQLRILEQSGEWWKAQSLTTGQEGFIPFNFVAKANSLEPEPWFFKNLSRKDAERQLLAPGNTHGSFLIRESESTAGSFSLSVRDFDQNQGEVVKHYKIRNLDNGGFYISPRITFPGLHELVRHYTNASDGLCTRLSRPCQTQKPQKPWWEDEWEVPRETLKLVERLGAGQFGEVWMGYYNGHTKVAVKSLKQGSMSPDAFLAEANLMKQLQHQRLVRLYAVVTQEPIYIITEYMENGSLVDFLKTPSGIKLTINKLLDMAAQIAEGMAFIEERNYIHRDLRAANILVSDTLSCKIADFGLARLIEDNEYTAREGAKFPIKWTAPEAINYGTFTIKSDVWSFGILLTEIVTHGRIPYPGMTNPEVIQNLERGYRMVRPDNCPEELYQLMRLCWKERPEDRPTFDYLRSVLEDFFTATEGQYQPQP
# [12] = molecular target: T3, Tyrosine-protein kinase Srms; test: Inhibition of human SRMS at 5 nM by radiometric scintillation counting analysis relative to control
# [13] = molecular target: Tyrosine-protein kinase SYK (Homo sapiens) (UniProt P43405); test: Inhibition of human full length recombinant Syk at 500 nM by radiometric scintillation counting analysis relative to control
# [14] = molecular target: T5, Inhibitor of nuclear factor kappa-B kinase subunit alpha (Homo sapiens) (UniProt O15111); test: Inhibition of human full length recombinant IKKalpha at 500 nM by radiometric scintillation counting analysis relative to control
# T5 sequence (whole entry): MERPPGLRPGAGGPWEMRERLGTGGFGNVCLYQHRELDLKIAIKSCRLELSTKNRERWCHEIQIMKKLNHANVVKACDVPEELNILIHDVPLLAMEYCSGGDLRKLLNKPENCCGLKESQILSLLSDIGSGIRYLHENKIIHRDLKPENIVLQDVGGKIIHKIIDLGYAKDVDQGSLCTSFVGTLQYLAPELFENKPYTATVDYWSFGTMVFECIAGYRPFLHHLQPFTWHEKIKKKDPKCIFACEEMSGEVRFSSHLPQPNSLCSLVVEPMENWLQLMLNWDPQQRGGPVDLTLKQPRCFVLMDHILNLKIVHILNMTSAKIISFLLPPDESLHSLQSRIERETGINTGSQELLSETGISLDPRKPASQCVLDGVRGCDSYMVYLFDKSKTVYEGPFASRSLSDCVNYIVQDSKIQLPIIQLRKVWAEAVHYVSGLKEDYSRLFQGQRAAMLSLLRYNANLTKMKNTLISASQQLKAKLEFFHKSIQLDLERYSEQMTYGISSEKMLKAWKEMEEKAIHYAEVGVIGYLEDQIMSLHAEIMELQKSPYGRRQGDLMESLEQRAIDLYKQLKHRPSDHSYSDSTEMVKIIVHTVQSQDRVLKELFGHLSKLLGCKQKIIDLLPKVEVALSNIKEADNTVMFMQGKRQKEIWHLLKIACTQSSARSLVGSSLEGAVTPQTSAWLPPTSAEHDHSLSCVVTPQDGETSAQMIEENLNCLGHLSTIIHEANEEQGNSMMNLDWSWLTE
# [15] = molecular target: Platelet-derived growth factor receptor beta (Homo sapiens) (UniProt P09619); test: Inhibition of human recombinant PDGFRbeta (557 to end) at 500 nM by radiometric scintillation counting analysis relative to control
# [16] = molecular target: T3, Tyrosine-protein kinase Srms; test: Inhibition of human SRMS at 500 nM by radiometric scintillation counting analysis relative to control
# [17] = molecular target: Tyrosine-protein kinase BTK (Homo sapiens) (UniProt Q06187); test: Inhibition of human full length recombinant BTK at 5 nM by radiometric scintillation counting analysis relative to control
# Chain of Tyrosine-protein kinase BTK (Homo sapiens) (Q06187 whole entry): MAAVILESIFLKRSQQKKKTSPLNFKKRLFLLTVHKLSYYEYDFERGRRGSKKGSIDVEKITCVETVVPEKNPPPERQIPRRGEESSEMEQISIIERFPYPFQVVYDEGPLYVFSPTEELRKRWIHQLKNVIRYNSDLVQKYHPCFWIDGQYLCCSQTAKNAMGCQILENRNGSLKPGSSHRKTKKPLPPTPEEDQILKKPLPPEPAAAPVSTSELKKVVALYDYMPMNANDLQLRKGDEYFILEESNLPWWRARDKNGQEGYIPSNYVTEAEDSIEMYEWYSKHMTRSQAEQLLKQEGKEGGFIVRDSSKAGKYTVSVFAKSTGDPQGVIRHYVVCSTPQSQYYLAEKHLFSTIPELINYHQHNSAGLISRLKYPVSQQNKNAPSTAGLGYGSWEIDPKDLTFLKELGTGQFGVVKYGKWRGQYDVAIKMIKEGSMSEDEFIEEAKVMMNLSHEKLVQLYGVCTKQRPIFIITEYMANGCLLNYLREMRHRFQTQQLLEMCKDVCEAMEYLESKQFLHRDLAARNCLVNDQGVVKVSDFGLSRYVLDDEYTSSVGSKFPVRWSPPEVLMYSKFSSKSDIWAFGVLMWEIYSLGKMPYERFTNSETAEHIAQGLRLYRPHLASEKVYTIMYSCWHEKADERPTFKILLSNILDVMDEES
# [18] = molecular target: T6, Tyrosine-protein kinase Lyn (Homo sapiens, UniProt P07948); test: Inhibition of human full length recombinant LYN at 500 nM by radiometric scintillation counting analysis relative to control
# T6 sequence (P07948 2-512 limits assumed): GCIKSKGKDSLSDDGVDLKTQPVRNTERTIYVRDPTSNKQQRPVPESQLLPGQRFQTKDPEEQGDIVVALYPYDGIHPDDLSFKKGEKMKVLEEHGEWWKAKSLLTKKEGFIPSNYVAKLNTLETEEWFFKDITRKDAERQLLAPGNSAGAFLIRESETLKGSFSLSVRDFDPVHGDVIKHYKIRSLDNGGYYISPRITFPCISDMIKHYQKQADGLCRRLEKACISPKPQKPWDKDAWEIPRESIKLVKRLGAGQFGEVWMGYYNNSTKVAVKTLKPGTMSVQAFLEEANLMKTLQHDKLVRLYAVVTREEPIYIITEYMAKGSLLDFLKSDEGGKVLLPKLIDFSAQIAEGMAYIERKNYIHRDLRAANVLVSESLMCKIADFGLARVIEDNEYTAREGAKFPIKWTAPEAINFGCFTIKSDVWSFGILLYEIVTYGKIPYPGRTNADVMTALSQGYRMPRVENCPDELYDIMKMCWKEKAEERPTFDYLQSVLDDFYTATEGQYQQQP
# [19] = molecular target: T6, Tyrosine-protein kinase Lyn; test: Inhibition of human full length recombinant LYN at 5 nM by radiometric scintillation counting analysis relative to control
# [20] = molecular target: T7, Tyrosine-protein kinase CSK (Homo sapiens, UniProt P41240); test: Inhibition of human full length recombinant CSK at 500 nM by radiometric scintillation counting analysis relative to control
# T7 sequence (P41240 2-450 limits assumed): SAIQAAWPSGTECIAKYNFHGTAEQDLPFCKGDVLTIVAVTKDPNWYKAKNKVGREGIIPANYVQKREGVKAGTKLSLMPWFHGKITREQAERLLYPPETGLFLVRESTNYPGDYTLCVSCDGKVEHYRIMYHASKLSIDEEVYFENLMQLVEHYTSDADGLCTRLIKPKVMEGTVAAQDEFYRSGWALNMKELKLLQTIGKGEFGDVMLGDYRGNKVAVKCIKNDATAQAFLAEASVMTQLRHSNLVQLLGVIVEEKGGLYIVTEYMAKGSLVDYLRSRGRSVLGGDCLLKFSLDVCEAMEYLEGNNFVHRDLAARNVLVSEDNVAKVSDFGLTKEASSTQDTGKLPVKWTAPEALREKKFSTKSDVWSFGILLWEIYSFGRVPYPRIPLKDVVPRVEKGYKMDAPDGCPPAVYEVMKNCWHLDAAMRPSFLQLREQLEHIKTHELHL
# [21] = system: RBL-2H3; test: Antiallergic activity against anti-DNP-IgE sensitized rat RBL-2H3 cells assessed as […] of degranulation by measuring beta-hexosaminidase release using P-nitrophenyl-N-acetyl-D-glucosamide as substrate measured after 1 hr by microplate reader; format: functional, cell-based; conditions: RBL-2H3, 1 h
# [22] = molecular target: T7, Tyrosine-protein kinase CSK; test: Inhibition of human full length recombinant CSK at 50 nM by radiometric scintillation counting analysis relative to control
# T1 sequence (P07947 2-543 limits assumed): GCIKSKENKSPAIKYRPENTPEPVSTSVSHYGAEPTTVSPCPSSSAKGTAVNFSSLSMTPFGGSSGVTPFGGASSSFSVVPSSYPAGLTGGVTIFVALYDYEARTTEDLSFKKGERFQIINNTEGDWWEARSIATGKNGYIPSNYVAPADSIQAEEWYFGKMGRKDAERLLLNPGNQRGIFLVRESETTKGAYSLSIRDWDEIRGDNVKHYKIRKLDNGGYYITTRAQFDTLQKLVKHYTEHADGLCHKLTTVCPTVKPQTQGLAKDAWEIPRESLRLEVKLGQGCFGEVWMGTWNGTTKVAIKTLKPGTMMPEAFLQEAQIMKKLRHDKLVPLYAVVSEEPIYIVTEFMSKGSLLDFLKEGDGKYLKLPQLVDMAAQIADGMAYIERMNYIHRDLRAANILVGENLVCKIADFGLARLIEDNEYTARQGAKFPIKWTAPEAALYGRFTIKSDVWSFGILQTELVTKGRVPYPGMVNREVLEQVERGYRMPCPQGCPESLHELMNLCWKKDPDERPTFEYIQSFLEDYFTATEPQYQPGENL
inhibition [1] [%],inhibition [2] [%],inhibition [3] [%],inhibition [4] [%],inhibition [5] [%],inhibition [6] [%],inhibition [7] [%],inhibition [8] [%],inhibition [9] [%],inhibition [10] [%],inhibition [11] [%],inhibition [12] [%],inhibition [13] [%],inhibition [14] [%],inhibition [15] [%],inhibition [16] [%],inhibition [17] [%],inhibition [18] [%],inhibition [19] [%],inhibition [20] [%],Structure (SMILES),also measured
18,32,64,39,19,39,-6,2,12,7,27,7,8,2,83,13,8,105,19,39,Cc1ccc(C(=O)Nc2ccc(Cl)cc2Cl)cc1C#Cc1cc(-c2cnn(C)c2)cnc1N,IC50 [21]: > 1000 nM; inhibition [22]: 28%
39,58,96,52,22,94,7,12,1,21,42,-1,9,0,71,54,-4,99,96,23,Cc1ccc(C(=O)Nc2ccc(OC(F)(F)F)cc2)cc1C#Cc1cc(-c2cnn(C)c2)cnc1N,IC50 [21]: 3.71 nM; inhibition [22]: 4%

Structure (SMILES),inhibition [1] [%],inhibition [2] [%],inhibition [3] [%],inhibition [4] [%],inhibition [5] [%],inhibition [6] [%],inhibition [7] [%],inhibition [8] [%],inhibition [9] [%],inhibition [10] [%],inhibition [11] [%],inhibition [12] [%],inhibition [13] [%],inhibition [14] [%],inhibition [15] [%],inhibition [16] [%],inhibition [17] [%],inhibition [18] [%],inhibition [19] [%],inhibition [20] [%],also measured
Cc1ccc(C(=O)Nc2cc(C(F)(F)F)cc(C(F)(F)F)c2)cc1C#Cc1cc(-c2cnn(C)c2)cnc1N,14,22,88,1,51,98,1,17,18,22,26,20,2,12,12,86,16,96,41,71,IC50 [21]: 9.32 nM; inhibition [22]: 34%
